{
  "source": "patent EP4545549B1",
  "about": "“INSECT NEUROPEPTIDES” (Solasta Bio Limited, priority 2023, dated 2025)",
  "key": {"Aphis gossypii": {"tested_on": "Aphis gossypii", "conditions": "Greece; cotton; unformulated SB-P-46; counted 3 days following application; Figure 14", "source_text": "(§1) The data has been processed in the ARM Field Trials software under license.\nAgriScience conducted a field trial in Greece, investigating the efficacy of insecticidal peptides on aphids on cotton crop."}, "Aphis fabae": {"tested_on": "Aphis fabae", "conditions": "unformulated SB-P-46; for reduction in naturally infested Aphis fabae numbers as a percentage of untreated control crop: vining peas", "source_text": "as §1"}, "[1]": {"tested_on": "Amrasca biguttula (leaf hopper)", "conditions": "unformulated SB-P-46; 3 and 7 days after application; Figure 16", "source_text": "as §1"}, "Bumblebee": {"tested_on": "Bumblebee", "test": "Bee oral toxicity test (adapted from OECD Test No. 247: Bumblebee, Acute Oral Toxicity Test)", "format": "in vivo", "conditions": "after 96 hours of application; compared with sucrose or vehicle and Imidacloprid; Figure 10", "protocol": "Bee oral testing protocol was carried out adapted from OECD Test No. 247: Bumblebee, Acute Oral Toxicity Test. The toxicity of SB-P-46 was compared with a negative control of sucrose or vehicle, and with a current commercial insecticide Imidacloprid."}, "Myzus persicae": {"tested_on": "Myzus persicae", "conditions": "unformulated SB-P-46; leaf dip; mortality assessed at 72, 96 and 120 hours; compared to vehicle and Spirotetramat; Figures 6 and 7", "quoted_text": "The assay was carried out based on IRAC susceptibility test method 019 (https://irac-online.org/methods/aphids-adultnymphs/).\nDip a 2.5 cm leaf disc into 3 ml of treatment solution allowing the treatment to coat the leaf. Leave the disc to dry for 1 hour and place onto the set agar. Place insects (aphids) onto each of the leaf discs. Each unit is sealed with a close-fitting, ventilated lid. Place the agar dishes in a small plastic tray lined with moist tissue paper and ensure the water trays in the bottom of the incubator are filled with clean water and place within the incubator. An assessment of mortality is made at 72, 96 and 120 hours. Leaf dip assays were performed with unformulated SB-P-46, and compared to a negative control vehicle and a current commercial insecticide Spirotetramat."}},
  "note": "Where two headings read alike, the source gives them in different places. Residues, ends and D or L forms follow the SMILES beside them.",
  "data": [
    {"molecule": "CC(C)C[C@H](NC(=O)[C@H](CCCNC(=N)N)NC(=O)[C@@H]1CCCN1C(=O)[C@H](CO)NC(=O)[C@H](Cc1ccccc1)NC(=O)[C@@H]1CCCN1C(=O)[C@@H]1CCCN1C(=O)[C@H](CO)NC(=O)[C@H](Cc1ccc(O)cc1)NC(=O)[C@@H]1CCCN1C(=O)[C@@H]1CCCN1C(=O)[C@@H](N)CO)C(N)=O", "note": "[SB-P-46, [Hy]-SPPYSPPFSPRL-[NH2]] (H-SPPYSPPFSPRL-NH2)", "values": [
      {"measurement": "reduction in naturally infested Aphis gossypii numbers as a percentage of untreated control crop", "setting": "Aphis gossypii", "result": "performing with close efficacy to the conventional pesticide equivalent tested"},
      {"measurement": "reduction in naturally infested Aphis fabae numbers as a percentage of untreated control crop", "setting": "Aphis fabae; Wigtoft location, counted 4 days following application, Figure 12", "result": "similarly efficacious activity"},
      {"measurement": "reduction in naturally infested Aphis fabae numbers as a percentage of untreated control crop", "setting": "Aphis fabae; field trial 1, Chatteris location, counted 14 days following application, Figure 11", "result": "performed comparably to the conventional insecticides Stealth and Teppeki (sprayed as Treatment 1), followed by Aphox (sprayed as Treatment 2)"},
      {"measurement": "reduction in naturally infested Aphis fabae numbers as a percentage of untreated control crop", "setting": "Aphis fabae; third trial (slot trial), Holbeach location, counted 7 days following application, low aphid infestation, Figure 13", "result": "performed as efficaciously as the conventional pesticides tested"},
      {"measurement": "activity against naturally infested Aphis fabae in field trials", "setting": "Aphis fabae; 4 and 8 days after application, Figure 15", "result": "acted comparably to Hallmark Zeon insecticide"},
      {"measurement": "activity against naturally infested Amrasca biguttula (leaf hopper) in field trials", "setting": "[1]", "result": "acted comparably to Flipper insecticide"},
      {"measurement": "bee oral toxicity (% survival)", "setting": "Bumblebee", "result": "far lower toxicity to key pollinator species such as bees compared to broad spectrum chemical insecticides such as Imidacloprid"},
      {"measurement": "activity against Myzus persicae", "setting": "Myzus persicae", "result": "good activity"}
    ]}
  ]
}
